In brackets after ≈: the same amount, converted by molar mass.
What was measured:
Assay in all cases: Microdilution MIC assay (NCCLS M7-A)
Assay type in all cases: cell-based
[1] = tested on: Pseudomonas aeruginosa SG 137; details: strain SG137
Experimental: (§1) The antibacterial activity was tested by a microdilution assay according to National Committee for Clinical Laboratory Standards, 1998, Methods for dilution antimicrobial susceptibility tests for bacteria that grow aerobically, Approved standard M7-A, NCCLS, Villanova, Pa.
(§2) The minimal inhibition concentrations (MICs) were determined for the following bacterial strains: The Gram-negative strains Pseudomonas aeruginosa SG 137, ATCC 27853, Escherichia coli ATCC 25922, Klebsiella pneumoniae ATCC 10031, Stenotrophomonas maltophilia GN 12873, Serratia marcescens SG 621 as well as for the Gram-positive strain Staphylococcus aureus SG 511.

[2] = tested on: Serratia marcescens SG 621; details: strain SG621
Experimental: as §1, §2

[3] = tested on: Klebsiella pneumoniae ATCC 10031; details: strain ATCC10031
Experimental: as §1, §2

[4] = tested on: Escherichia coli ATCC 25922; details: strain ATCC 25922
Experimental: as §1, §2

[5] = tested on: Pseudomonas aeruginosa ATCC 27853; details: strain ATCC 27853
Experimental: as §1, §2

[6] = tested on: Staphylococcus aureus SG 511; details: strain SG511
Experimental: as §1, §2

[7] = tested on: Stenotrophomonas maltophilia GN 12873; details: strain GN12873
Experimental: as §1, §2

Row | Compound | MIC Pseudomonas aeruginosa SG137 [1] [mg/L] | MIC Serratia marc. SG621 [2] [mg/L] | MIC Klebsiella pneumoniae ATCC10031 [3] [mg/L] | MIC E. coli ATCC 25922 [4] [mg/L] | MIC Pseudomonas aeruginosa ATCC 27853 [5] [mg/L] | MIC Staph. aureus SG511 [6] [mg/L] | MIC Stenotroph. maltoph. GN12873 [7] [mg/L]
1 | COC(=O)Oc1cccc(C(=O)N(C)CCCN(CC(=O)NC(C(=O)NC2C(=O)N3C2SC(C)(C)C3C(=O)O)c2ccccc2)C(=O)c2cccc(OC(=O)OC)c2OC(=O)OC)c1OC(=O)OC (stereo not shown) [Example 1, N-[3,7-Bis-(2,3-dimethoxycarbonyloxybenzoyl)-3,7-diaza-octanoyl]-ampicillin] | 0.031 (≈ 0.0316 µM) | 0.078 (≈ 0.0794 µM) | 0.008 (≈ 0.00815 µM) | 0.062 (≈ 0.0631 µM) | 0.031 (≈ 0.0316 µM) | 10 (≈ 10.2 µM) | 0.062 (≈ 0.0631 µM)
2 | CC(=O)Oc1cccc(C(=O)NCCCCCCN(CCCCCCN(CC(=O)NC(C(=O)NC2C(=O)N3C2SC(C)(C)C3C(=O)O)c2ccccc2)C(=O)c2cccc(OC(C)=O)c2OC(C)=O)C(=O)c2cccc(OC(C)=O)c2OC(C)=O)c1OC(C)=O (stereo not shown) [Example 2, N-[3,10,17-Tris-(2,3-diacetoxybenzoyl)-3,10,17-triaza-heptadecanoyl]-ampicillin] | <0.05 | – | 0.4 (≈ 0.316 µM) | 0.4 (≈ 0.316 µM) | 3.125 (≈ 2.47 µM) | 6.25 (≈ 4.94 µM) | –
3 | COC(=O)Oc1cccc(C(=O)N(CCN(CCn2c(=O)oc3c(OC(=O)OC)cccc3c2=O)CCn2c(=O)oc3c(OC(=O)OC)cccc3c2=O)CC(=O)NC(C(=O)NC2C(=O)N3C2SC(C)(C)C3C(=O)O)c2ccccc2)c1OC(=O)OC (stereo not shown) [Example 3, N-[6-Bis[2-(8-methoxycarbonyloxy-benzoxazin-2,4-dion-3-yl)-ethyl]-3-[2,3-di-(methoxycarbonyloxy)-benzoyl]-3,6-diaza-hexanoyl]-ampicillin] | 0.1 (≈ 0.0814 µM) | 0.2 (≈ 0.163 µM) | <0.05 | 0.2 (≈ 0.163 µM) | 0.78 (≈ 0.635 µM) | 12.5 (≈ 10.2 µM) | 0.4 (≈ 0.326 µM)
4 | CC(=O)Oc1cccc(C(=O)NCCCCCCN(CCCCCCN(CC(=O)NC(C(=O)NC2C(=O)N3C(C(=O)O)=C(Cl)CSC23)c2ccccc2)C(=O)c2cccc(OC(C)=O)c2OC(C)=O)C(=O)c2cccc(OC(C)=O)c2OC(C)=O)c1OC(C)=O (stereo not shown) [Example 4, N-[3,10,17-Tris-(2,3-diacetoxybenzoyl)-3,10,17-triaza-heptadecanoyl]-cefaclor] | 0.2 (≈ 0.156 µM) | – | <0.05 | 0.2 (≈ 0.156 µM) | 1.56 (≈ 1.22 µM) | 6.25 (≈ 4.87 µM) | 50 (≈ 38.9 µM)
5 | CCOC(=O)OC(C)OC(=O)[C@@H]1N2C(=O)[C@@H](NC(=O)[C@H](NC(=O)CN(CCCCCCN(CCCCCCNC(=O)c3cccc(OC(C)=O)c3OC(C)=O)C(=O)c3cccc(OC(C)=O)c3OC(C)=O)C(=O)c3cccc(OC(C)=O)c3OC(C)=O)c3ccccc3)[C@H]2SC1(C)C (stereo partly shown) [Example 5, N-[3,10,17-Tris-(2,3-diacetoxybenzoyl)-3,10,17-triaza-heptadecanoyl]-bacampicillin] | 25 (≈ 18.1 µM) | 0.4 (≈ 0.29 µM) | 0.2 (≈ 0.145 µM) | 100 (≈ 72.4 µM) | 25 (≈ 18.1 µM) | – | 50 (≈ 36.2 µM)
6 | CC(=O)Oc1cccc(C(=O)NCCCN(CCCN(CC(=O)NC(C(=O)NC2C(=O)N3C2SC(C)(C)C3C(=O)O)c2ccccc2)C(=O)c2cccc(OC(C)=O)c2OC(C)=O)C(=O)c2cccc(OC(C)=O)c2OC(C)=O)c1OC(C)=O (stereo not shown) [Example 6, N-[3,7,11-Tris-(2,3-diacetoxybenzoyl)-3,7,11-triaza-undecanoyl]-ampicillin] | 0.2 (≈ 0.169 µM) | 0.78 (≈ 0.66 µM) | 0.1 (≈ 0.0847 µM) | 1.56 (≈ 1.32 µM) | 1.56 (≈ 1.32 µM) | 6.25 (≈ 5.29 µM) | 0.4 (≈ 0.339 µM)
7 | COC(=O)Oc1cc(Cl)cc(C(=O)N(C)CCCN(CC(=O)NC(C(=O)NC2C(=O)N3C2SC(C)(C)C3C(=O)O)c2ccccc2)C(=O)c2cc(Cl)cc(OC(=O)OC)c2OC(=O)OC)c1OC(=O)OC (stereo not shown) [Example 7, N-[3,7-Bis-(5-chlor-2,3-dimethoxycarbonyloxybenzoyl)-3,7-diaza-octanoyl]-ampicillin] | <0.005 | 0.02 (≈ 0.019 µM) | <0.005 | 0.05 (≈ 0.0476 µM) | 0.1 (≈ 0.0952 µM) | 12.5 (≈ 11.9 µM) | 0.02 (≈ 0.019 µM)
8 | COC(=O)Oc1cc(Br)cc(C(=O)N(C)CCCN(CC(=O)NC(C(=O)NC2C(=O)N3C2SC(C)(C)C3C(=O)O)c2ccccc2)C(=O)c2cc(Br)cc(OC(=O)OC)c2OC(=O)OC)c1OC(=O)OC (stereo not shown) [Example 8, N-{3,7-Bis-[5-brom-2,3-di-(methoxycarbonyloxy)-benzoyl]-3,7-diaza-octanoyl}-ampicillin] | <0.005 | 0.02 (≈ 0.0175 µM) | <0.005 | <0.005 | 0.05 (≈ 0.0439 µM) | 6.25 (≈ 5.48 µM) | 0.02 (≈ 0.0175 µM)
9 | CC(=O)Oc1cccc(C(=O)N(C)CCCN(CC(=O)N[C@@H](C(=O)N[C@@H]2C(=O)N3[C@@H]2SC(C)(C)[C@@H]3C(=O)O)c2ccccc2)C(=O)c2cccc(OC(C)=O)c2OC(C)=O)c1OC(C)=O [Example 9, N-[3,7-Bis-(2,3-diacetoxybenzoyl)-3,7-diaza-octanoyl]-ampicillin] | 0.005 (≈ 0.00545 µM) | 0.05 (≈ 0.0545 µM) | <0.005 | 0.02 (≈ 0.0218 µM) | 0.08 (≈ 0.0872 µM) | 3.12 (≈ 3.4 µM) | 0.02 (≈ 0.0218 µM)
10 | CC(=O)Oc1cccc(C(=O)NCCCCN(CC(=O)N[C@@H](C(=O)N[C@@H]2C(=O)N3[C@@H]2SC(C)(C)[C@@H]3C(=O)O)c2ccccc2)C(=O)c2cccc(OC(C)=O)c2OC(C)=O)c1OC(C)=O [Example 10, N-[3,8-Bis-(2,3-diacetoxybenzoyl)-3,8-diaza-octanoyl]-ampicillin] | <0.005 | <0.005 | <0.005 | <0.005 | 0.05 (≈ 0.0545 µM) | 3.12 (≈ 3.4 µM) | <0.005
11 | CC(=O)Oc1cccc(C(=O)NCCCCN(CC(=O)NC(C(=O)NC2C(=O)N3C2SC(C)(C)C3C(=O)O)c2ccc(O)cc2)C(=O)c2cccc(OC(C)=O)c2OC(C)=O)c1OC(C)=O (stereo not shown) [Example 11, N-[3,8-Bis-(2,3-diacetoxybenzoyl)-3,8-diaza-octanoyl]-amoxicillin] | 0.01 (≈ 0.0107 µM) | <0.005 | <0.005 | 0.01 (≈ 0.0107 µM) | 0.1 (≈ 0.107 µM) | 3.12 (≈ 3.34 µM) | <0.005
12 | COC(=O)Oc1cc(Cl)c(Cl)c(C(=O)N(C)CCCN(CC(=O)NC(C(=O)NC2C(=O)N3C2SC(C)(C)C3C(=O)O)c2ccccc2)C(=O)c2c(Cl)c(Cl)cc(OC(=O)OC)c2OC(=O)OC)c1OC(=O)OC (stereo not shown) [Example 12, N-{3,7-Bis-(2,3-dichlor-5,6-di-methoxycarbonyloxy-benzoyl)-3,7-diaza-octanoyl}-ampicillin] | 0.05 (≈ 0.0447 µM) | 0.05 (≈ 0.0447 µM) | <0.005 | 0.02 (≈ 0.0179 µM) | 0.1 (≈ 0.0893 µM) | 3.12 (≈ 2.79 µM) | 0.05 (≈ 0.0447 µM)
13 | CC(=O)Oc1cccc(C(=O)NCCN(CCNC(=O)c2cccc(OC(C)=O)c2OC(C)=O)CCN(CC(=O)NC(C(=O)NC2C(=O)N3C2SC(C)(C)C3C(=O)O)c2ccccc2)C(=O)c2cccc(OC(C)=O)c2OC(C)=O)c1OC(C)=O (stereo not shown) [Example 13, N-{[6-Bis-2,3-(diacetoxybenzoyl)-2-aminoethyl]-3-(2,3-diacetoxybenzoyl)-3,6-diaza-hexanoyl}-ampicillin] | 0.1 (≈ 0.0836 µM) | 0.78 (≈ 0.652 µM) | 0.1 (≈ 0.0836 µM) | 0.78 (≈ 0.652 µM) | 3.12 (≈ 2.61 µM) | 1.56 (≈ 1.3 µM) | 0.2 (≈ 0.167 µM)
14 | COC(=O)Oc1cccc(C(=O)NCC(O)CN(CC(=O)NC(C(=O)NC2C(=O)N3C2SC(C)(C)C3C(=O)O)c2ccccc2)C(=O)c2cccc(OC(=O)OC)c2OC(=O)OC)c1OC(=O)OC (stereo not shown) [Example 14, N-[3,7-Bis-(2,3-dimethoxycarbonyloxybenzoyl)-3,7-diaza-5-hydroxy-heptanoyl]-ampicillin] | 0.1 (≈ 0.102 µM) | 1.56 (≈ 1.59 µM) | 0.2 (≈ 0.203 µM) | 6.25 (≈ 6.35 µM) | 1.56 (≈ 1.59 µM) | 0.4 (≈ 0.407 µM) | 0.4 (≈ 0.407 µM)

Source: patent US20040132707A1, “Catecholate beta-lactam conjugates, method for producing the same and the use thereof” (Gruenenthal GmbH, priority 2001, published 2004)
